Source: patent US8003658B2, “Quinazoline derivatives for inhibiting cancer cell growth and method for the preparation thereof” (Hanmi Holdings Co., Ltd., priority 2004, dated 2011)
Read-outs that look alike come from different tables or passages of the source.

What was measured:
[1] = system: A431 (ATCC: CRL-1555); assay: Test of cancer cell growth inhibition (SRB), A431; conditions: read-out: IC50 A431
[2] = system: SK-Br3 (ATCC: HTB-30); assay: Test of cancer cell growth inhibition (SRB), SK-Br3; conditions: read-out: IC50 SK-Br-3
[3] = EGFR overexpressed A431, 72 hours, SRB

IC50 ([1]; Homo sapiens, A-431, 72 h) [nM] | IC50 ([2]; Homo sapiens, SK-BR-3, 72 h) [nM] | IC50 [1, 3] [nM] | IC50 ([2]; Erb-B2 overexpressed SK-Br3, 72 hours, SRB) [nM] | Compound
956 | 35 |  |  | C=CC(=O)NCCC(=O)Nc1ccc2ncnc(Nc3ccc(OCc4ccncc4)c(Cl)c3)c2c1 [Example 174, N-(2-{4-[3-chloro-4-(pyridin-4-ylmethoxy)-phenylamino]-quinazolin-6-ylcarbamoyl}-ethyl)-acrylamide]
93 | 56 |  |  | C=CC(=O)N1CCC[C@H]1C(=O)Nc1cc2c(Nc3ccc(OCc4cccc(C)n4)c(Cl)c3)ncnc2cc1OC [Example 194, (2S)-1-acryloyl-pyrrolidine-2-carboxylic acid {4-[3-chloro-4-(6-methyl-pyridin-2-ylmethoxy)-phenylamino]-7-methoxy-quinazolin-6-yl}-amide]
75 | 22 |  |  | C=CC=CCn1ncc2cc(Nc3ncnc4cc(OC)c(NC(=O)[C@@H]5CCCN5C(=O)C=C)cc34)ccc21 [Example 193, (2S)-1-acryloyl-pyrrolidine-2-carboxylic acid [7-methoxy-4-(1-penta-2,4-dienyl-1H-indazol-5-ylamino)-quinazolin-6-yl]-amide]
348 | 131 |  |  | O=C(CCNC(=O)c1ccoc1)Nc1ccc2ncnc(Nc3ccc(OCc4cccc(F)c4)c(Cl)c3)c2c1 [Example 33, furan-3-carboxylic acid (2-{4-[3-chloro-4-(3-fluoro-benzyloxy)-phenylamino]-quinazolin-6-ylcarbamoyl}-ethyl)-amide]
22 | 21 |  |  | C=CC(=O)N[C@@H](C)C(=O)Nc1cc2c(Nc3ccc(OCc4ccccn4)c(Cl)c3)ncnc2cc1OCCCOC [Example 220, (1S)—N-(1-{4-[3-chloro-4-(pyridin-2-ylmethoxy)-phenylamino]-7-(3-methoxypropoxy)-quinazolin-6-ylcarbamoyl}-ethyl)-acrylamide]
148 | 25 |  |  | C=CC(=O)N1CCC[C@H](C(=O)Nc2cc3c(Nc4ccc(OCc5ccccn5)c(Cl)c4)ncnc3cc2OC)C1 [Example 201, (3S)-1-acryloyl-piperidine-3-carboxylic acid {4-[3-chloro-4-(pyridin-2-ylmethoxy)-phenylamino]-7-methoxy-quinazolin-6-yl}-amide]
102 | 54 |  |  | C[S+]([O-])CC(=O)NCCCC(=O)Nc1ccc2ncnc(Nc3ccc(OCc4cccc(F)c4)c(Cl)c3)c2c1 (centres unmarked) [Example 138, N-{4-[3-chloro-4-(3-fluoro-benzyloxy)-phenylamino]-quinazolin-6-yl}-4-(2-methanesulfinyl-acetylamino)-butyramide]
86 | 5 |  |  | C=CC(=O)N1CCCC1CC(=O)Nc1ccc2ncnc(Nc3ccc(OCc4ccccn4)c(Cl)c3)c2c1 (centres unmarked) [Example 154, 2-(1-acryloyl-pyrrolidin-2-yl)-N-{4-[3-chloro-4-(pyridin-2-ylmethoxy)-phenylamino]-quinazolin-6-yl}-acetamide]
583 | 48 |  |  | C#Cc1cccc(Nc2ncnc3ccc(NC(=O)[C@@H]4CCCN4C(=O)C=C)cc23)c1 [Example 158, (2S)-1-acryloyl-pyrrolidine-2-carboxylic acid [4-(3-ethynyl-phenylamino)-quinazolin-6-yl]-amide]
359 | 48 |  |  | COCCNCC(=O)NCCCC(=O)Nc1ccc2ncnc(Nc3ccc(OCc4cccc(F)c4)c(Cl)c3)c2c1 [Example 106, N-{4-[3-chloro-4-(3-fluoro-benzyloxy)-phenylamino]-quinazolin-6-yl}-4-[2-(2-methoxy-ethylamino)-acetylamino]-butyramide]
293 | 80 |  |  | O=C(CCCNC(=O)C1CC1)Nc1ccc2ncnc(Nc3ccc(OCc4cccc(F)c4)c(Cl)c3)c2c1 [Example 92, cyclopropylcarboxylic acid (3-{4-[3-chloro-4-(3-fluoro-benzyloxy)-phenylamino]-quinazolin-6-ylcarbamoyl}-propyl)-amide]
 | 28 | 286 |  | C=CC(=O)N1CCCC(C(=O)Nc2ccc3ncnc(Nc4ccc(OCc5ccccn5)c(Cl)c4)c3c2)C1 (centres unmarked) [Example 162, 1-acryloyl-piperidine-3-carboxylic acid {4-[3-chloro-4-(pyridin-2-ylmethoxy)-phenylamino]-quinazolin-6-yl}-amide]
22 | 6 |  |  | C=CC(=O)N[C@@H](C)C(=O)Nc1cc2c(Nc3ccc(OCc4cccc(F)c4)c(Cl)c3)ncnc2cc1OCCOC [Example 214, (1S)—N-(1-{4-[3-chloro-4-(3-fluoro-benzyloxy)-phenylamino]-7-(2-methoxyethoxy)-quinazolin-6-ylcarbamoyl}-ethyl)-acrylamide]
552 | 29 |  |  | C=CC(=O)N1CCC[C@H]1C(=O)Nc1cc2c(Nc3ccc(OCc4ccccn4)c(Cl)c3)ncnc2cc1OC1CCCC1 [Example 173, (2S)-1-acryloyl-pyrrolidine-2-carboxylic acid {4-[3-chloro-4-(pyridin-2-ylmethoxy)-phenylamino]-7-cyclopentyloxy-quinazolin-6-yl}-amide]
390 | 115 |  |  | CC(CNC(=O)CS(C)(=O)=O)C(=O)Nc1ccc2ncnc(Nc3ccc(OCc4cccc(F)c4)c(Cl)c3)c2c1 (centres unmarked) [Example 43, N-{4-[3-chloro-4-(3-fluoro-benzyloxy)-phenylamino]-quinazolin-6-yl}-3-(2-methanesulfonyl-acetylamino)-2-methyl-propionamide]
735 | 161 |  |  | C[S+]([O-])CC(=O)NCCC(=O)Nc1ccc2ncnc(Nc3ccc(OCc4cccc(F)c4)c(Cl)c3)c2c1 (centres unmarked) [Example 118, N-{4-[3-chloro-4-(3-fluoro-benzyloxy)-phenylamino]-quinazolin-6-yl}-3-(2-methanesulfinyl-acetylamino)-propionamide]
123 | 92 |  |  | COCCOCC(=O)NCCC(=O)Nc1ccc2ncnc(Nc3ccc(OCc4cccc(F)c4)c(Cl)c3)c2c1 [Example 135, N-{4-[3-chloro-4-(3-fluoro-benzyloxy)-phenylamino]-quinazolin-6-yl}-3-[2-(2-methoxy-ethoxy)-acetylamino]-propionamide]
 | 12 | 350 |  | C=CC(=O)N1CCC(C(=O)Nc2ccc3ncnc(Nc4ccc(OCc5ccccn5)c(Cl)c4)c3c2)C1 (centres unmarked) [Example 155, 1-acryloyl-pyrrolidine-3-carboxylic acid {4-[3-chloro-4-(pyridin-2-ylmethoxy)-phenylamino]-quinazolin-6-yl}-amide]
335 | 427 |  |  | CC(C)(C)OC(=O)NCCC(=O)Nc1ccc2ncnc(Nc3ccc(OCc4cccc(F)c4)c(Cl)c3)c2c1 [Example 19, (2-{4-[3-chloro-4-(3-fluoro-benzyloxy)-phenylamino]-quinazolin-6-ylcarbamoyl}-ethyl)-carbamic acid t-butylester]
36 | 6 |  |  | C=CC(=O)NCCC(=O)Nc1cc2c(Nc3ccc(OCc4ccccn4)c(Cl)c3)ncnc2cc1F [Example 192, N-(2-{4-[3-chloro-4-(pyridin-2-ylmethoxy)-phenylamino]-7-fluoro-quinazolin-6-ylcarbamoyl}-ethyl)-acrylamide]
 | 12 | 105 |  | C=CC(=O)N1CCCCC1C(=O)Nc1ccc2ncnc(Nc3ccc(OCc4ccccn4)c(Cl)c3)c2c1 (centres unmarked) [Example 164, 1-acryloyl-piperidine-2-carboxylic acid {4-[3-chloro-4-(pyridin-2-ylmethoxy)-phenylamino]-quinazolin-6-yl}-amide]
517 | 34 |  |  | C=CC(=O)N1CCC[C@H]1C(=O)Nc1cc2c(Nc3ccc(OCc4ccccn4)c(Cl)c3)ncnc2cc1Cl [Example 176, (2S)-1-acryloyl-pyrrolidine-2-carboxylic acid {7-chloro-4-[3-chloro-4-(pyridin-2-ylmethoxy)-phenylamino]-quinazolin-6-yl}-amide]
 |  | 28 | 23 | (2S)-2-acryloylamino-N-{4-[3-chloro-4-(3-fluoro-benzyloxy)-phenylamino]-7-methoxy-quinazolin-6-yl}-4-methylsulfanyl-butyramide [Example 221]
59 | 11 |  |  | C=CC(=O)N1CCC[C@H]1C(=O)Nc1cc2c(Nc3ccc(OCc4cccc(F)c4)c(Cl)c3)ncnc2cc1OCCOC [Example 215, (2S)-1-acryloyl-pyrrolidine-2-carboxylic acid {4-[3-chloro-4-(3-fluoro-benzyloxy)-phenylamino]-7-(2-methoxyethoxy)-quinazolin-6-yl}-amide]
79 | 24 |  |  | C=CC(=O)N1CCCC1CC(=O)Nc1cc2c(Nc3ccc(OCc4ccccn4)c(Cl)c3)ncnc2cc1OC (centres unmarked) [Example 169, 2-(1-acryloyl-pyrrolidin-2-yl)-N-{4-[3-chloro-4-(pyridin-2-ylmethoxy)-phenylamino]-7-methoxy-quinazolin-6-yl}-acetamide]
47 | 24 |  |  | C=CC(=O)N1CCC(C(=O)Nc2cc3c(Nc4ccc(OCc5ccccn5)c(Cl)c4)ncnc3cc2OC)C1 (centres unmarked) [Example 198, 1-acryloyl-pyrrolidine-3-carboxylic acid {4-[3-chloro-4-(pyridin-2-ylmethoxy)-phenylamino]-7-methoxy-quinazolin-6-yl}-amide]
936 | 172 |  |  | CC(CNC(=O)OC(C)(C)C)C(=O)Nc1ccc2ncnc(Nc3ccc(OCc4cccc(F)c4)c(Cl)c3)c2c1 (centres unmarked) [Example 41, (2-{4-[3-chloro-4-(3-fluoro-benzyloxy)-phenylamino]-quinazolin-6-ylcarbamoyl}-propyl)-carbamic acid t-butylester]
332 | 8 |  |  | C=CC(=O)N1CC(C(=O)Nc2cc3c(Nc4ccc(OCc5ccccn5)c(Cl)c4)ncnc3cc2OC)C1 [Example 200, 1-acryloyl-azetidine-3-carboxylic acid {4-[3-chloro-4-(pyridin-2-ylmethoxy)-phenylamino]-7-methoxy-quinazolin-6-yl}-amide]
